According to patent US11612605B2, “(+)-azasetron for use in the treatment of ear disorders” (SENSORION, priority 2016, dated 2023):

System: SSNHL after acoustic trauma
Test: SSNHL model: acoustic trauma (120 dB octave band noise), ABR and DPOAE audiometry
Format: in vivo, male Wistar rats
Protocol: All experiments were performed using 7-week-old male Wistar rats (CERJ, Le Genest, France) in accordance with the French Ministry of Agriculture regulations and European Community Council Directive no. 86/609/EEC, OJL 358. The rats were fed a standard diet ad libitum and maintained on a 12 hours' light-dark cycle.
Auditory Brainstem Reponses (ABR) and Distortion Product Otoacoustic Emissions (DPOAE) were recording using a RZ6 Auditory Workstation (Tucker-Davis Technologies, Alachua, Fla., USA) with animals deeply anesthetized using 90 mg/kg ketamine and 10 mg/kg xylazine and placed on a 35° C. recirculating heating pad inside a sound attenuating cubicle (Med Associates Inc., St. Albans, Vt., USA) throughout the experiment.
For ABR recordings, three stainless steel needle electrodes were placed subdermally over the vertex, the right mastoid and right hind leg of each animal. Tone-pips (5 msec duration presented at a rate of 21/s) at 8, 16 and 24 kHz were delivered to the right ear using a calibrated MF-1 speaker in closed-field configuration (Tucker-Davis Technologies, Alachua, Fla., USA) at attenuating intensity until no reproducible response could be recorded. Close to the ABR threshold, the responses to 1000 acoustic stimuli in 5 dB steps were averaged. Responses were low-pass filtered at 3 kHz.
DPOAEs were recorded and using ER10B+ Low Noise DPOAE microphone (Etymotic Research, Inc., Elk Grove Village, Ill., USA) with acoustic stimuli delivered by two calibrated MF-1 speakers in closed-field configuration (Tucker-Davis Technologies, Alachua, Fla., USA). DPOAEs were recorded at fixed stimulus levels (L1=L2=70 dB SPL), with an f2/f1 ratio of 1.2. Responses were recorded at 4, 8, 16, 24 and 32 kHz.
Animals were exposed to 120 dB octave band noise (8-16 kHz) for 2 hours in groups of 4 rats, placed in individual compartments of a custom built circular cage placed on a 30-cm diameter platform rotating at 3 turns/minute (Aqila Innovation, Valbonne, France). The calibrated octave band noise generated by the RZ6 SigGen software was further amplified by a Crown D-75 amplifier in bridge mode (Crown Audio, Elkhart, Ind., USA) and delivered by four Beyma CPI6 compression tweeters (Acustica Beyma S. L., Moncada, Valencia, Spain) positioned 39 cm above the rotating platform, each 10 cm from the platform center.
The ability of the racemic and two enantiomers of azasetron hydrochloride to reduce SSNHL after acoustic trauma was evaluated in a randomized, vehicle-controlled study with 7 weeks old male Wistar rats. Rats were randomized to receive 4.22 mg/kg of the racemic, two enantiomers of azasetron or vehicle control (physiological saline) by intraperitoneal injection immediately after acoustic trauma, followed by daily dosing for a total of 14 days. Two days prior to acoustic trauma, baseline audiometric readings using auditory brainstem response (ABR) (8, 16, and 24 kHz) were recorded for each animal. Animals were exposed to 120-dB octave-band noise (8-16 kHz) for 2 hours to induce acoustic trauma.
The ability of the (+)-enantiomer of azasetron hydrochloride to reduce SSNHL after acoustic trauma was evaluated in a randomized, vehicle-controlled study in male Wistar rats, 7 weeks of age. Rats were randomized to receive 5, 10, or 20 mg/kg of the (+)-enantiomer of azasetron hydrochloride or vehicle control (physiological saline) by oral gavage immediately after acoustic trauma, followed by daily dosing for a total of 14 days. Two days prior to acoustic trauma, baseline audiometric readings using auditory brainstem response (ABR) (8, 16, and 24 kHz) and distortion-product otoacoustic emissions (DPOAE) (4, 8, 16, 24, and 32 kHz) were recorded for each animal. Post-trauma audiometry recordings were conducted at 14 days.
The ability of the racemic azasetron hydrochloride by oral administration to reduce SSNHL after acoustic trauma was also evaluated. […]

[1] = 10 mg/kg oral gavage daily 14 days after acoustic trauma
[2] = 10 mg/kg oral gavage daily 14 days, baseline to day 14
[3] = 20 mg/kg oral gavage daily 14 days, baseline to day 14

Structure (SMILES) | protective effect on ABR thresholds [1] | protective effect on DPOAE amplitude loss [1] | ABR threshold shifts compared with racemic azasetron, (−)-enantiomer and vehicle (4.22 mg/kg intraperitoneal, daily for 14 days after acoustic trauma, 8, 16, 24 kHz) | mean improvement in hearing (ABR) [2] [dB] | mean reduction of ABR threshold shifts [2] [%] | mean improvement in hearing (ABR) [3] [dB] | mean reduction of ABR threshold shifts [3] [%] | mean reduction of DPOAE amplitude loss [3] [%] | reduction of hearing loss (average) by ASLHA criteria versus vehicle control (10- and 20-mg/kg oral doses)
CN1C(=O)COc2c(C(=O)NC3CN4CCC3CC4)cc(Cl)cc21 (racemic) [Racemic azasetron, N-(1-azabicyclo[2.2.2]octan-8-yl)-6-chloro-4-methyl-3-oxo-1,4-benzoxazine-8-carboxamide] | small tendency towards a protective effect | small tendency towards a protective effect |  |  |  |  |  |  | 
CN1C(=O)COc2c(C(=O)N[C@H]3CN4CCC3CC4)cc(Cl)cc21 [(+)-azasetron] |  |  | reduced ABR threshold shifts more than racemic azasetron or (−)-enantiomer | 22.3 | 35.1 | 19.4 | 30.5 | 51.2 | from moderately severe (56 to 70 dB) to mild/moderate (26 to 40 dB/41 to 55 dB)
